Reference: US9175003B2, “Substituted azoanthracene derivatives and intermediates for preparation thereof” (TransTech Pharma, LLC, priority 2009, dated 2015)

target: human GLP-1 receptor (Homo sapiens (Human), UniProt P43220); conditions: read-out: Mean EC50; cAMP, HTRF detection, 30 min at 37° C., HEK-293 cells expressing cloned human GLP-1 receptor
Sequence (P43220 24-463): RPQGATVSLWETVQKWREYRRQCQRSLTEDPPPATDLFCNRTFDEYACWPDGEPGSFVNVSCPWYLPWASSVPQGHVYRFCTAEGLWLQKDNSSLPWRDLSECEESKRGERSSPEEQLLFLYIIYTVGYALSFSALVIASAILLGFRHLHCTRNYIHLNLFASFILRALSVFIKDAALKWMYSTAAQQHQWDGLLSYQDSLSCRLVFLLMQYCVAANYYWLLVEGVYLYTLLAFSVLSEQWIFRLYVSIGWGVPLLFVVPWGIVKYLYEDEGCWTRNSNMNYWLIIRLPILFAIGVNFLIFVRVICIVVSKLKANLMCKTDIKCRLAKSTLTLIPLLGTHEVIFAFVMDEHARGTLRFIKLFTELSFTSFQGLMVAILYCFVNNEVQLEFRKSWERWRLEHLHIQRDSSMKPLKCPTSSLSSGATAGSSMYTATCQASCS

| SMILES | EC50 |
| --- | --- |
| CNc1nc(C)c(S(=O)(=O)N2Cc3cc4c(cc3C[C@H]2C(=O)N[C@@H](Cc2ccc(-c3ccc(C#N)cc3)cc2)C(=O)O)OC[C@H](c2ccc(OCc3ccc(Cl)c(Cl)c3)cc2)O4)s1 [Example 85, (S)-3-(4′-Cyano-biphenyl-4-yl)-2-{[(3S,8S)-3-[4-(3,4-dichloro-benzyloxy)-phenyl]-7-(4-methyl-2-methylamino-thiazole-5-sulfonyl)-2,3,6,7,8,9-hexahydro-[1,4]dioxino[2,3-g]isoquinoline-8-carbonyl]-amino}-propionic acid] | 263 nM |
| CCNc1nc(C)c(S(=O)(=O)N2Cc3cc4c(cc3C[C@H]2C(=O)N[C@@H](Cc2ccc(-c3ccc(C#N)cc3)cc2)C(=O)O)OC[C@H](c2ccc(OCc3ccc(Cl)c(Cl)c3)cc2)O4)s1 [Example 86, (S)-3-(4′-Cyano-biphenyl-4-yl)-2-{[(3S,8S)-3-[4-(3,4-dichloro-benzyloxy)-phenyl]-7-(2-ethylamino-4-methyl-thiazole-5-sulfonyl)-2,3,6,7,8,9-hexahydro-[1,4]dioxino[2,3-g]isoquinoline-8-carbonyl]-amino}-propionic acid] | 249 nM |
| COCCNc1nc(C)c(S(=O)(=O)N2Cc3cc4c(cc3C[C@H]2C(=O)N[C@@H](Cc2ccc(-c3ccc(C#N)cc3)cc2)C(=O)O)OC[C@H](c2ccc(OCc3ccc(Cl)c(Cl)c3)cc2)O4)s1 [Example 92, (S)-3-(4′-Cyano-biphenyl-4-yl)-2-({(3S,8S)-3-[4-(3,4-dichloro-benzyloxy)-phenyl]-7-[2-(2-methoxy-ethylamino)-4-methyl-thiazole-5-sulfonyl]-2,3,6,7,8,9-hexahydro-[1,4]dioxino[2,3-g]isoquinoline-8-carbonyl}-amino)-propionic acid] | 156 nM |
| COc1cc(C)ccc1S(=O)(=O)N1Cc2cc3c(cc2C[C@H]1C(=O)N[C@@H](Cc1ccc(-c2ccc(C#N)cc2)cc1)C(=O)O)OC[C@H](c1ccc(OCc2ccc(Cl)c(Cl)c2)cc1)O3 [Example 98, (S)-3-(4′-Cyano-biphenyl-4-yl)-2-{[(3S,8S)-3-[4-(3,4-dichloro-benzyloxy)-phenyl]-7-(2-methoxy-4-methyl-benzenesulfonyl)-2,3,6,7,8,9-hexahydro-[1,4]dioxino[2,3-g]isoquinoline-8-carbonyl]-amino}-propionic acid] | 377 nM |
| CC[C@@H](c1ccccc1)N1Cc2cc3c(cc2C[C@H]1C(=O)N[C@@H](Cc1ccc(-c2ccnc(C)c2C)cc1)C(=O)O)OC[C@H](c1ccc(OCc2cccc(Cl)c2)cc1)O3 [Example 147, (S)-2-{[(3S,8S)-3-[4-(3-Chloro-benzyloxy)-phenyl]-7-((S)-1-phenyl-propyl)-2,3,6,7,8,9-hexahydro-[1,4]dioxino[2,3-g]isoquinoline-8-carbonyl]-amino}-3-[4-(2,3-dimethyl-pyridin-4-yl)-phenyl]-propionic acid] | 5 nM |
| CC[C@@H](c1ccccc1)N1Cc2cc3c(cc2C[C@H]1C(=O)N[C@@H](Cc1ccc(-c2ccnc(C)c2C)cc1)C(=O)O)OC[C@H](c1ccc(OCc2ccc(Cl)cc2)cc1)O3 [Example 148, (S)-2-{[(3S,8S)-3-[4-(4-Chloro-benzyloxy)-phenyl]-7-((S)-1-phenyl-propyl)-2,3,6,7,8,9-hexahydro-[1,4]dioxino[2,3-g]isoquinoline-8-carbonyl]-amino}-3-[4-(2,3-dimethyl-pyridin-4-yl)-phenyl]-propionic acid] | 13 nM |
| CC(=O)N1Cc2cc3c(cc2C[C@H]1C(=O)N[C@@H](Cc1ccc(-c2ccnc(C)c2C)cc1)C(=O)O)OC[C@H](c1ccc(OCc2ccc(Cl)c(Cl)c2)cc1)O3 [Example 150, (S)-2-({(3S,8S)-7-Acetyl-3-[4-(3,4-dichloro-benzyloxy)-phenyl]-2,3,6,7,8,9-hexahydro-[1,4]dioxino[2,3-g]isoquinoline-8-carbonyl}-amino)-3-[4-(2,3-dimethyl-pyridin-4-yl)-phenyl]-propionic acid] | 372 nM |
| Cc1nccc(-c2ccc(C[C@H](NC(=O)[C@@H]3Cc4cc5c(cc4CN3C(=O)C(C)(C)C)O[C@@H](c3ccc(OCc4ccc(Cl)c(Cl)c4)cc3)CO5)C(=O)O)cc2)c1C [Example 152, (S)-2-{[(3S,8S)-3-[4-(3,4-Dichloro-benzyloxy)-phenyl]-7-(2,2-dimethyl-propionyl)-2,3,6,7,8,9-hexahydro-[1,4]dioxino[2,3-g]isoquinoline-8-carbonyl]-amino}-3-[4-(2,3-dimethyl-pyridin-4-yl)-phenyl]-propionic acid] | 80 nM |
| Cc1cccc(C(=O)N2Cc3cc4c(cc3C[C@H]2C(=O)N[C@@H](Cc2ccc(-c3ccnc(C)c3C)cc2)C(=O)O)OC[C@H](c2ccc(OCc3ccc(Cl)c(Cl)c3)cc2)O4)c1 [Example 157, (S)-2-{[(3S,8S)-3-[4-(3,4-Dichloro-benzyloxy)-phenyl]-7-(3-methyl-benzoyl)-2,3,6,7,8,9-hexahydro-[1,4]dioxino[2,3-g]isoquinoline-8-carbonyl]-amino}-3-[4-(2,3-dimethyl-pyridin-4-yl)-phenyl]-propionic acid] | 34 nM |

Continued by falling EC50, values first:

| EC50 | SMILES |
| --- | --- |
| 525 nM | Cc1nccc(-c2ccc(C[C@H](NC(=O)[C@@H]3Cc4cc5c(cc4CN3C(=O)Cc3ccccc3)O[C@@H](c3ccc(OCc4ccc(Cl)c(Cl)c4)cc3)CO5)C(=O)O)cc2)c1C [Example 155, (S)-2-({(3S,8S)-3-[4-(3,4-Dichloro-benzyloxy)-phenyl]-7-phenylacetyl-2,3,6,7,8,9-hexahydro-[1,4]dioxino[2,3-g]isoquinoline-8-carbonyl}-amino)-3-[4-(2,3-dimethyl-pyridin-4-yl)-phenyl]-propionic acid] |
| 327 nM | Cc1nccc(-c2ccc(C[C@H](NC(=O)[C@@H]3Cc4cc5c(cc4CN3C(=O)C(C)C)O[C@@H](c3ccc(OCc4ccc(Cl)c(Cl)c4)cc3)CO5)C(=O)O)cc2)c1C [Example 153, (S)-2-({(3S,8S)-3-[4-(3,4-Dichloro-benzyloxy)-phenyl]-7-isobutyryl-2,3,6,7,8,9-hexahydro-[1,4]dioxino[2,3-g]isoquinoline-8-carbonyl}-amino)-3-[4-(2,3-dimethyl-pyridin-4-yl)-phenyl]-propionic acid] |
| 315 nM | Cc1nc(N)ccc1S(=O)(=O)N1Cc2cc3c(cc2C[C@H]1C(=O)N[C@@H](Cc1ccc(-c2ccc(C#N)cc2)cc1)C(=O)O)OC[C@H](c1ccc(OCc2ccc(Cl)c(Cl)c2)cc1)O3 [Example 141, (S)-2-({(3S,8S)-7-(6-Amino-2-methyl-pyridine-3-sulfonyl)-3-[4-(3,4-dichloro-benzyloxy)-phenyl]-2,3,6,7,8,9-hexahydro-[1,4]dioxino[2,3-g]isoquinoline-8-carbonyl}-amino)-3-(4′-cyano-biphenyl-4-yl)-propionic acid] |
| 263 nM | Cc1nc(NC(C)C)ccc1S(=O)(=O)N1Cc2cc3c(cc2C[C@H]1C(=O)N[C@@H](Cc1ccc(-c2ccc(C#N)cc2)cc1)C(=O)O)OC[C@H](c1ccc(OCc2ccc(Cl)c(Cl)c2)cc1)O3 [Example 142, (S)-3-(4′-Cyano-biphenyl-4-yl)-2-{[(3S,8S)-3-[4-(3,4-dichloro-benzyloxy)-phenyl]-7-(6-isopropylamino-2-methyl-pyridine-3-sulfonyl)-2,3,6,7,8,9-hexahydro-[1,4]dioxino[2,3-g]isoquinoline-8-carbonyl]-amino}-propionic acid] |
| 245 nM | Cc1nc(NCC2CC2)ccc1S(=O)(=O)N1Cc2cc3c(cc2C[C@H]1C(=O)N[C@@H](Cc1ccc(-c2ccc(C#N)cc2)cc1)C(=O)O)OC[C@H](c1ccc(OCc2ccc(Cl)c(Cl)c2)cc1)O3 [Example 144, (S)-3-(4′-Cyano-biphenyl-4-yl)-2-({(3S,8S)-7-[6-(cyclopropylmethyl-amino)-2-methyl-pyridine-3-sulfonyl]-3-[4-(3,4-dichloro-benzyloxy)-phenyl]-2,3,6,7,8,9-hexahydro-[1,4]dioxino[2,3-g]isoquinoline-8-carbonyl}-amino)-propionic acid] |
| 214 nM | CCC(=O)Nc1nc(C)c(S(=O)(=O)N2Cc3cc4c(cc3C[C@H]2C(=O)N[C@@H](Cc2ccc(-c3ccc(C#N)cc3)cc2)C(=O)O)OCC(c2ccc(OCc3ccc(Cl)c(Cl)c3)cc2)O4)s1 (stereo partly drawn) [Example 132, (S)-3-(4′-Cyano-biphenyl-4-yl)-2-{[(S)-3-[4-(3,4-dichloro-benzyloxy)-phenyl]-7-(4-methyl-2-propionylamino-thiazole-5-sulfonyl)-2,3,6,7,8,9-hexahydro-[1,4]dioxino[2,3g]isoquinoline-8-carbonyl]-amino}-propionic acid] |
| 108 nM | Cc1nccc(-c2ccc(C[C@H](NC(=O)[C@@H]3Cc4cc5c(cc4CN3C(=O)C3CCCC3)O[C@@H](c3ccc(OCc4ccc(Cl)c(Cl)c4)cc3)CO5)C(=O)O)cc2)c1C [Example 154, (S)-2-({(3S,8S)-7-Cyclopentanecarbonyl-3-[4-(3,4-dichloro-benzyloxy)-phenyl]-2,3,6,7,8,9-hexahydro-[1,4]dioxino[2,3-g]isoquinoline-8-carbonyl}-amino)-3-[4-(2,3-dimethyl-pyridin-4-yl)-phenyl]-propionic acid] |
| 26 nM | CC[C@@H](c1ccccc1)N1Cc2cc3c(cc2C[C@H]1C(=O)N[C@@H](Cc1ccc(-c2ccnc(C)c2C)cc1)C(=O)O)OC[C@H](c1ccc(OCc2ccccc2)cc1)O3 [Example 149, (S)-2-{[(3S,8S)-3-(4-Benzyloxy-phenyl)-7-((S)-1-phenyl-propyl)-2,3,6,7,8,9-hexahydro-[1,4]dioxino[2,3-g]isoquinoline-8-carbonyl]-amino}-3-[4-(2,3-dimethyl-pyridin-4-yl)-phenyl]-propionic acid] |
| 18 nM | Cc1ccccc1C(=O)N1Cc2cc3c(cc2C[C@H]1C(=O)N[C@@H](Cc1ccc(-c2ccnc(C)c2C)cc1)C(=O)O)OC[C@H](c1ccc(OCc2ccc(Cl)c(Cl)c2)cc1)O3 [Example 151, (S)-2-{[(3S,8S)-3-[4-(3,4-Dichloro-benzyloxy)-phenyl]-7-(2-methyl-benzoyl)-2,3,6,7,8,9-hexahydro-[1,4]dioxino[2,3-g]isoquinoline-8-carbonyl]-amino}-3-[4-(2,3-dimethyl-pyridin-4-yl)-phenyl]-propionic acid] |
